In ChEMBL document CHEMBL3045851, “Design, synthesis, and in vitro antimicrobial activities of novel azetidinyl-3-quinazolin-4-one hybrids” (2012):
≈ marks a conversion by molar mass, not a printed value.

Columns and labels:
Format in all cases: functional
[1] = test system: Escherichia coli; assay: Antibacterial activity against Escherichia coli MTCC 443 after overnight incubation by broth dilution method
[2] = test system: Pseudomonas aeruginosa; assay: Antibacterial activity against Pseudomonas aeruginosa MTCC 1688 after overnight incubation by broth dilution method
[3] = test system: Streptococcus pyogenes; assay: Antibacterial activity against Streptococcus pyogenes MTCC 442 after overnight incubation by broth dilution method
[4] = test system: Staphylococcus aureus; assay: Antibacterial activity against Staphylococcus aureus MTCC 96 after overnight incubation by broth dilution method
[5] = test system: Klebsiella pneumoniae; assay: Antibacterial activity against Klebsiella pneumoniae MTCC 109 after overnight incubation by broth dilution method
[6] = test system: Salmonella typhimurium; assay: Antibacterial activity against Salmonella enterica subsp. enterica serovar Typhimurium MTCC 98 after overnight incubation by broth dilution method
[7] = test system: Aspergillus clavatus; assay: Antifungal activity against Aspergillus clavatus MTCC 1323 by broth microdilution method
[8] = test system: Bacillus subtilis; assay: Antibacterial activity against Bacillus subtilis MTCC 441 after overnight incubation by broth dilution method
[9] = test system: Mycobacterium tuberculosis; assay: Growth inhibition of Mycobacterium tuberculosis H37Rv MTCC 200 at 100 ug/ml after 28 days by Lowenstein-Jensen method; details: H37Rv MTCC 200, 672 h, read-out: GI
[10] = test system: Aspergillus niger; assay: Antifungal activity against Aspergillus niger MTCC 282 by broth microdilution method
[11] = test system: Candida albicans; assay: Antifungal activity against Candida albicans MTCC 227 by broth microdilution method
[12] = test system: Mycobacterium tuberculosis; assay: Growth inhibition of Mycobacterium tuberculosis H37Rv MTCC 200 at 500 ug/ml after 28 days by Lowenstein-Jensen method; details: H37Rv MTCC 200, 672 h, read-out: GI
[13] = test system: Mycobacterium tuberculosis; assay: Growth inhibition of Mycobacterium tuberculosis H37Rv MTCC 200 at 0.2 ug/ml after 28 days by Lowenstein-Jensen method; details: H37Rv MTCC 200, 672 h, read-out: GI
[14] = test system: Mycobacterium tuberculosis; assay: Growth inhibition of Mycobacterium tuberculosis H37Rv MTCC 200 at 259 ug/ml after 28 days by Lowenstein-Jensen method; details: H37Rv MTCC 200, 672 h, read-out: GI
[15] = test system: Mycobacterium tuberculosis; assay: Growth inhibition of Mycobacterium tuberculosis H37Rv MTCC 200 at 50 ug/ml after 28 days by Lowenstein-Jensen method; details: H37Rv MTCC 200, 672 h, read-out: GI
[16] = test system: Mycobacterium tuberculosis; assay: Growth inhibition of Mycobacterium tuberculosis H37Rv MTCC 200 at 40 ug/ml after 28 days by Lowenstein-Jensen method
[17] = test system: Mycobacterium tuberculosis; assay: Growth inhibition of Mycobacterium tuberculosis H37Rv MTCC 200 at 62.5 ug/ml after 28 days by Lowenstein-Jensen method; details: H37Rv MTCC 200, 672 h, read-out: GI
[18] = test system: Mycobacterium tuberculosis; assay: Growth inhibition of Mycobacterium tuberculosis H37Rv MTCC 200 at 250 ug/ml after 28 days by Lowenstein-Jensen method; details: H37Rv MTCC 200, 672 h, read-out: GI
[19] = test system: Mycobacterium tuberculosis; assay: Growth inhibition of Mycobacterium tuberculosis H37Rv MTCC 200 at 270 ug/ml after 28 days by Lowenstein-Jensen method; details: H37Rv MTCC 200, 672 h, read-out: GI

Compound	MIC99 [1]	MIC99 [2]	MIC99 [3]	MIC99 [4]	MIC99 [5]	MIC99 [6]	MIC99 [7]	MIC99 [8]	inhibition of growth at 100 µg/mL [9]	MIC99 [10]	MIC99 [11]	inhibition of growth at 500 µg/mL [12]	inhibition of growth at 0.2 µg/mL [13]	inhibition of growth at 259 µg/mL [14]	inhibition of growth at 50 µg/mL [15]	growth inhibition (GI) [16]	inhibition of growth at 62.5 µg/mL [17]	inhibition of growth at 250 µg/mL [18]	inhibition of growth at 270 µg/mL [19]	inhibition of growth at 40 µg/mL ([16]; H37Rv MTCC 200, 672 h, read-out: GI)
O=C(Nn1c(CNN2C(=O)C(Cl)C2c2ccccc2[N+](=O)[O-])nc2ccccc2c1=O)c1ccncc1 (stereo unspecified)	100 µg/mL (≈ 192 µM)	200 µg/mL (≈ 385 µM)	250 µg/mL (≈ 481 µM)	200 µg/mL (≈ 385 µM)	250 µg/mL (≈ 481 µM)	250 µg/mL (≈ 481 µM)	500 µg/mL (≈ 962 µM)	250 µg/mL (≈ 481 µM)	99%	500 µg/mL (≈ 962 µM)	1000 µg/mL (≈ 1920 µM)	–	–	–	–	–	–	–	–	–
O=C(Nn1c(CNN2C(=O)C(Cl)C2c2ccccc2)nc2ccccc2c1=O)c1ccncc1 (stereo unspecified)	200 µg/mL (≈ 421 µM)	125 µg/mL (≈ 263 µM)	250 µg/mL (≈ 526 µM)	250 µg/mL (≈ 526 µM)	200 µg/mL (≈ 421 µM)	200 µg/mL (≈ 421 µM)	500 µg/mL (≈ 1050 µM)	100 µg/mL (≈ 211 µM)	–	500 µg/mL (≈ 1050 µM)	1000 µg/mL (≈ 2110 µM)	98%	–	–	–	–	–	–	–	–
NNC(=O)c1ccncc1 [ISONIAZID]	–	–	–	–	–	–	–	–	–	–	–	–	99%	–	–	–	–	–	–	–
O=C(O)c1cn(C2CC2)c2cc(N3CCNCC3)c(F)cc2c1=O [CIPROFLOXACIN]	25 µg/mL (≈ 75.4 µM)	25 µg/mL (≈ 75.4 µM)	50 µg/mL (≈ 151 µM)	50 µg/mL (≈ 151 µM)	25 µg/mL (≈ 75.4 µM)	25 µg/mL (≈ 75.4 µM)	–	–	–	–	–	–	–	–	–	–	–	–	–	–
COc1ccc(C2C(Cl)C(=O)N2NCc2nc3ccccc3c(=O)n2NC(=O)c2ccncc2)cc1 (stereo unspecified)	500 µg/mL (≈ 990 µM)	500 µg/mL (≈ 990 µM)	200 µg/mL (≈ 396 µM)	125 µg/mL (≈ 248 µM)	62.5 µg/mL (≈ 124 µM)	500 µg/mL (≈ 990 µM)	200 µg/mL (≈ 396 µM)	250 µg/mL (≈ 495 µM)	–	250 µg/mL (≈ 495 µM)	200 µg/mL (≈ 396 µM)	–	–	98%	–	–	–	–	–	–
NYSTATIN	–	–	–	–	–	–	100 µg/mL	–	–	100 µg/mL	100 µg/mL	–	–	–	–	–	–	–	–	–
O=C(Nn1c(CNN2C(=O)C(Cl)C2c2ccc(Br)cc2)nc2ccccc2c1=O)c1ccncc1 (stereo unspecified)	62.5 µg/mL (≈ 113 µM)	200 µg/mL (≈ 361 µM)	200 µg/mL (≈ 361 µM)	200 µg/mL (≈ 361 µM)	500 µg/mL (≈ 903 µM)	100 µg/mL (≈ 181 µM)	500 µg/mL (≈ 903 µM)	200 µg/mL (≈ 361 µM)	97%	1000 µg/mL (≈ 1810 µM)	500 µg/mL (≈ 903 µM)	–	–	–	–	–	–	–	–	–
CCn1cc(C(=O)O)c(=O)c2cc(F)c(N3CCNCC3)cc21 [NORFLOXACIN]	10 µg/mL (≈ 31.3 µM)	10 µg/mL (≈ 31.3 µM)	10 µg/mL (≈ 31.3 µM)	10 µg/mL (≈ 31.3 µM)	10 µg/mL (≈ 31.3 µM)	10 µg/mL (≈ 31.3 µM)	–	–	–	–	–	–	–	–	–	–	–	–	–	–
O=C(Nn1c(CNN2C(=O)C(Cl)C2c2ccc([N+](=O)[O-])cc2)nc2ccccc2c1=O)c1ccncc1 (stereo unspecified)	150 µg/mL (≈ 289 µM)	150 µg/mL (≈ 289 µM)	125 µg/mL (≈ 240 µM)	100 µg/mL (≈ 192 µM)	200 µg/mL (≈ 385 µM)	200 µg/mL (≈ 385 µM)	> 1000 µg/mL	100 µg/mL (≈ 192 µM)	–	> 1000 µg/mL	500 µg/mL (≈ 962 µM)	–	–	–	99%	–	–	–	–	–
GENTAMICIN	0.05 µg/mL	1 µg/mL	0.5 µg/mL	0.25 µg/mL	0.05 µg/mL	1 µg/mL	–	–	–	–	–	–	–	–	–	98%	–	–	–	–
O=C(Nn1c(CNN2C(=O)C(Cl)C2c2ccc(Cl)cc2)nc2ccccc2c1=O)c1ccncc1 (stereo unspecified)	50 µg/mL (≈ 98.2 µM)	100 µg/mL (≈ 196 µM)	500 µg/mL (≈ 982 µM)	500 µg/mL (≈ 982 µM)	100 µg/mL (≈ 196 µM)	100 µg/mL (≈ 196 µM)	1000 µg/mL (≈ 1960 µM)	250 µg/mL (≈ 491 µM)	–	1000 µg/mL (≈ 1960 µM)	250 µg/mL (≈ 491 µM)	–	–	–	–	–	99%	–	–	–
O=C(N[C@H](CO)[C@H](O)c1ccc([N+](=O)[O-])cc1)C(Cl)Cl [CHLORAMPHENICOL]	50 µg/mL (≈ 155 µM)	50 µg/mL (≈ 155 µM)	50 µg/mL (≈ 155 µM)	50 µg/mL (≈ 155 µM)	50 µg/mL (≈ 155 µM)	50 µg/mL (≈ 155 µM)	–	–	–	–	–	–	–	–	–	–	–	–	–	–
CCc1ccc(C2C(Cl)C(=O)N2NCc2nc3ccccc3c(=O)n2NC(=O)c2ccncc2)cc1 (stereo unspecified)	200 µg/mL (≈ 398 µM)	500 µg/mL (≈ 994 µM)	250 µg/mL (≈ 497 µM)	200 µg/mL (≈ 398 µM)	250 µg/mL (≈ 497 µM)	125 µg/mL (≈ 249 µM)	> 1000 µg/mL	100 µg/mL (≈ 199 µM)	–	> 1000 µg/mL	1000 µg/mL (≈ 1990 µM)	97%	–	–	–	–	–	–	–	–
O=C(Nn1c(CNN2C(=O)C(Cl)C2c2ccccc2O)nc2ccccc2c1=O)c1ccncc1 (stereo unspecified)	100 µg/mL (≈ 204 µM)	125 µg/mL (≈ 255 µM)	250 µg/mL (≈ 509 µM)	250 µg/mL (≈ 509 µM)	250 µg/mL (≈ 509 µM)	125 µg/mL (≈ 255 µM)	1000 µg/mL (≈ 2040 µM)	250 µg/mL (≈ 509 µM)	–	1000 µg/mL (≈ 2040 µM)	250 µg/mL (≈ 509 µM)	–	–	–	–	–	–	97%	–	–
COC1=CC(=O)C[C@@H](C)[C@]12Oc1c(Cl)c(OC)cc(OC)c1C2=O [GRISEOFULVIN]	–	–	–	–	–	–	100 µg/mL (≈ 283 µM)	–	–	100 µg/mL (≈ 283 µM)	500 µg/mL (≈ 1420 µM)	–	–	–	–	–	–	–	–	–
O=C(Nn1c(CNN2C(=O)C(Cl)C2c2ccccc2Cl)nc2ccccc2c1=O)c1ccncc1 (stereo unspecified)	250 µg/mL (≈ 491 µM)	250 µg/mL (≈ 491 µM)	500 µg/mL (≈ 982 µM)	500 µg/mL (≈ 982 µM)	100 µg/mL (≈ 196 µM)	500 µg/mL (≈ 982 µM)	250 µg/mL (≈ 491 µM)	500 µg/mL (≈ 982 µM)	–	200 µg/mL (≈ 393 µM)	200 µg/mL (≈ 393 µM)	98%	–	–	–	–	–	–	–	–
O=C(Nn1c(CNN2C(=O)C(Cl)C2c2cccc([N+](=O)[O-])c2)nc2ccccc2c1=O)c1ccncc1 (stereo unspecified)	250 µg/mL (≈ 481 µM)	250 µg/mL (≈ 481 µM)	500 µg/mL (≈ 962 µM)	500 µg/mL (≈ 962 µM)	500 µg/mL (≈ 962 µM)	250 µg/mL (≈ 481 µM)	> 1000 µg/mL	200 µg/mL (≈ 385 µM)	–	> 1000 µg/mL	1000 µg/mL (≈ 1920 µM)	–	–	–	–	–	–	–	97%	–
O=C(Nn1c(CNN2C(=O)C(Cl)C2c2ccc(O)cc2)nc2ccccc2c1=O)c1ccncc1 (stereo unspecified)	250 µg/mL (≈ 509 µM)	250 µg/mL (≈ 509 µM)	250 µg/mL (≈ 509 µM)	200 µg/mL (≈ 407 µM)	250 µg/mL (≈ 509 µM)	250 µg/mL (≈ 509 µM)	> 1000 µg/mL	250 µg/mL (≈ 509 µM)	–	> 1000 µg/mL	500 µg/mL (≈ 1020 µM)	–	–	–	–	–	–	97%	–	–
CC1(C)S[C@@H]2[C@H](NC(=O)[C@H](N)c3ccccc3)C(=O)N2[C@H]1C(=O)O [AMPICILLIN]	100 µg/mL (≈ 286 µM)	100 µg/mL (≈ 286 µM)	100 µg/mL (≈ 286 µM)	250 µg/mL (≈ 715 µM)	100 µg/mL (≈ 286 µM)	100 µg/mL (≈ 286 µM)	–	–	–	–	–	–	99%	–	–	–	–	–	–	–
CO[C@H]1/C=C/O[C@@]2(C)Oc3c(C)c(O)c4c(O)c(c(/C=N/N5CCN(C)CC5)c(O)c4c3C2=O)NC(=O)/C(C)=C\C=C\[C@H](C)[C@H](O)[C@@H](C)[C@@H](O)[C@@H](C)[C@H](OC(C)=O)[C@@H]1C [RIFAMPIN]	–	–	–	–	–	–	–	–	–	–	–	–	–	–	–	–	–	–	–	98%
